In patent US8664257B2, “Oxygen-substituted 3-heteroaroylamino-propionic acid derivatives and their use as pharmaceuticals” (Sanofi, priority 2010, dated 2014):
Read-outs that look alike come from different tables or passages of the source.

Biological target: T1, Recombinant human cathepsin A (Homo sapiens, UniProt P10619)
T1 construct: Recombinant human cathepsin A (residues 29-480, with a C-terminal 10-His tag); 10-His (C); purchased R&D Systems 1049-SE
T1 sequence (P10619 29-312 limits assumed): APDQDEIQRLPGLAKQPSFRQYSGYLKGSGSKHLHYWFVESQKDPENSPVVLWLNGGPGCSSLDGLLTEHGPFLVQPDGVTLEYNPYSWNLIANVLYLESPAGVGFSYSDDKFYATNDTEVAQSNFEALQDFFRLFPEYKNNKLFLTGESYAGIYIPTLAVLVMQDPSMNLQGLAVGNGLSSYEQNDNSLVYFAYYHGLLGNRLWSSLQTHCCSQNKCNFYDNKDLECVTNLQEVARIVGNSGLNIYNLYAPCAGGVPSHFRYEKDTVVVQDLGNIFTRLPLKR
T1 sequence (P10619 327-480 limits assumed): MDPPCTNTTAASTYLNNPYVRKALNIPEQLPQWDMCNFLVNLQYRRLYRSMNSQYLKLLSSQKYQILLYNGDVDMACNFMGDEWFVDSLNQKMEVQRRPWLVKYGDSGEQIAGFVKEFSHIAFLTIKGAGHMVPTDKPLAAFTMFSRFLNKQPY
Test: Cathepsin A inhibitory activity
Type: biochemical
Method in brief: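 Human cathepsin A (res. 29-480, C-His10) pre-activated with cathepsin L (MES pH 6.0, DTT, 15 min, 37 °C; quenched with 10 μM E-64). Enzyme (833 ng/ml) preincubated 15 min RT with compound in MES pH 5.5/DTT, then 2 μM Bodipy FL-bradykinin for 15 min RT. Capillary electrophoresis product/substrate peak areas; IC50 from % inhibition.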

[1] = recombinant human cathepsin A 833 ng/ml, Bodipy FL-labeled bradykinin 2 μM, pH 5.5, read-out: CATH-A IC50
[2] = recombinant human cathepsin A, read-out: Activity (2): Cathepsin A inhibitory activity, IC50 class
[3] = read-out: Activity (2): Cathepsin A inhibitory activity (IC50 class)

SMILES	IC50 [1]	IC50 [2]	IC50 [3]
O=C(O)CC(NC(=O)c1cc(O)n(-c2cccc(Cl)c2)n1)c1cc(F)ccc1Cl (stereo not shown) [Example 509, 3-(2-Chloro-5-fluoro-phenyl)-3-{[1-(3-chloro-phenyl)-5-hydroxy-1H-pyrazole-3-carbonyl]-amino}-propionic acid]	100 nM	100 to 1000 nM	–
O=C(O)CC(NC(=O)c1cc(O)n(-c2cccc(Cl)c2)n1)c1cc(Cl)ccc1Cl (stereo not shown) [Example 511, 3-{[1-(3-Chloro-phenyl)-5-hydroxy-1H-pyrazole-3-carbonyl]-amino}-3-(2,5-dichloro-phenyl)-propionic acid]	102 nM	100 to 1000 nM	–
Cc1ccc([C@H](CC(=O)O)NC(=O)c2cc(O)n(-c3cccc(Cl)c3)n2)cc1 [Example 512, (S)-3-{[1-(3-Chloro-phenyl)-5-hydroxy-1H-pyrazole-3-carbonyl]-amino}-3-p-tolyl-propionic acid]	155 nM	100 to 1000 nM	–
O=C(O)CC(NC(=O)c1cc(O)n(-c2ccc(Cl)cc2)n1)c1ccc(-c2ccccn2)cc1 (stereo not shown) [Example 515, 3-{[1-(4-Chloro-phenyl)-5-hydroxy-1H-pyrazole-3-carbonyl]-amino}-3-(4-pyridin-2-yl-phenyl)-propionic acid]	238 nM	100 to 1000 nM	–
O=C(O)CC(NC(=O)c1cc(O)n(-c2ccccc2F)n1)c1cc(F)ccc1F (stereo not shown) [Example 517]	–	100 to 1000 nM	–
COc1ccc(F)cc1C(CC(=O)O)NC(=O)c1cc(O)n(-c2cccc(F)c2)n1 (stereo not shown) [Example 520]	–	100 to 1000 nM	–
O=C(O)C[C@H](NC(=O)c1cc(O)n(-c2cccc(F)c2)n1)c1ccccc1Cl [Example 522]	–	100 to 1000 nM	–
O=C(O)CC(NC(=O)c1cc(O)n(-c2ccc(F)cc2)n1)c1cc(F)ccc1Cl (stereo not shown) [Example 524, 3-(2-Chloro-5-fluoro-phenyl)-3-{[1-(4-fluoro-phenyl)-5-hydroxy-1H-pyrazole-3-carbonyl]-amino}-propionic acid]	–	100 to 1000 nM	–
Cc1ccc([C@H](CC(=O)O)NC(=O)c2cc(O)n(-c3ccc(F)cc3)n2)cc1 [Example 526, (S)-3-{[1-(4-Fluoro-phenyl)-5-hydroxy-1H-pyrazole-3-carbonyl]-amino}-3-p-tolyl-propionic acid]	358 nM	100 to 1000 nM	–
O=C(O)CC(NC(=O)c1cc(O)n(-c2ccc(F)cc2)n1)c1ccc(-c2ccccn2)cc1 (stereo not shown) [Example 527, 3-{[1-(4-Fluoro-phenyl)-5-hydroxy-1H-pyrazole-3-carbonyl]-amino}-3-(4-pyridin-2-yl-phenyl)-propionic acid]	152 nM	100 to 1000 nM	–
O=C(O)C[C@H](NC(=O)c1cc(O)n(-c2ccc(F)cc2)n1)c1ccccc1Cl [Example 528, (S)-3-(2-Chloro-phenyl)-3-{[1-(4-fluoro-phenyl)-5-hydroxy-1H-pyrazole-3-carbonyl]-amino}-propionic acid]	413 nM	100 to 1000 nM	–
COc1ccc(-c2ccc(C(CC(=O)O)NC(=O)c3cc(O)n(-c4ccccc4F)n3)cc2)cn1 (stereo not shown) [Example 531]	–	100 to 1000 nM	–
Cc1ccccc1[C@H](CC(=O)O)NC(=O)c1cc(O)n(Cc2ccccc2)n1 [Example 533]	–	100 to 1000 nM	–
COc1cc(C(=O)N[C@@H](CC(=O)O)c2ccccc2C)nn1-c1ccccc1 [Example 534, (S)-3-[(5-Methoxy-1-phenyl-1H-pyrazole-3-carbonyl)-amino]-3-o-tolyl-propionic acid]	–	< 100 nM	–
O=C(O)CC(NC(=O)c1cc(O)n(Cc2ccccc2)n1)c1ccc(-c2ccc(F)cc2)cc1 (stereo not shown) [Example 538]	–	–	100 to 1000 nM
COc1cc(C(=O)NC(CC(=O)O)c2ccc(-c3ccc(F)cc3)cc2)nn1-c1ccccc1 (stereo not shown) [Example 544]	–	–	1000 to 30000 nM
COc1cc(-c2ccccc2)ccc1C(CC(=O)O)NC(=O)c1cc(O)n(-c2ccccc2)n1 (stereo not shown) [Example 545, 3-[(5-Hydroxy-1-phenyl-1H-pyrazole-3-carbonyl)-amino]-3-(3-methoxy-biphenyl-4-yl)-propionic acid]	1110 nM	–	1000 to 30000 nM
COc1ccc(C(CC(=O)O)NC(=O)c2cc(O)n(-c3ccccc3)n2)c(C(F)(F)F)c1 (stereo not shown) [Example 546, 3-[(5-Hydroxy-1-phenyl-1H-pyrazole-3-carbonyl)-amino]-3-(4-methoxy-2-trifluoromethyl-phenyl)-propionic acid]	533 nM	–	100 to 1000 nM
COc1ccc(F)c(C(CC(=O)O)NC(=O)c2cc(O)n(-c3ccccc3)n2)c1 (stereo not shown) [Example 547, 3-(2-Fluoro-5-methoxy-phenyl)-3-[(5-hydroxy-1-phenyl-1H-pyrazole-3-carbonyl)-amino]-propionic acid]	1390 nM	–	1000 to 30000 nM
O=C(O)CC(NC(=O)c1cc(O)n(-c2ccccc2F)n1)c1ccc(-n2cncn2)cc1 (stereo not shown) [Example 550, 3-{[1-(2-Fluoro-phenyl)-5-hydroxy-1H-pyrazole-3-carbonyl]-amino}-3-(4-[1,2,4]triazol-1-yl-phenyl)-propionic acid]	635 nM	–	100 to 1000 nM

Now from value to compound:

IC50 [1]	IC50 [2]	IC50 [3]	SMILES
175 nM	100 to 1000 nM	–	Cc1ccc(F)cc1C(CC(=O)O)NC(=O)c1cc(O)n(-c2cccc(Cl)c2)n1 (stereo not shown) [Example 510, 3-{[1-(3-Chloro-phenyl)-5-hydroxy-1H-pyrazole-3-carbonyl]-amino}-3-(5-fluoro-2-methyl-phenyl)-propionic acid]
195 nM	100 to 1000 nM	–	O=C(O)CC(NC(=O)c1cc(O)n(-c2cccc(Cl)c2)n1)c1ccc(-c2ccccn2)cc1 (stereo not shown) [Example 513, 3-{[1-(3-Chloro-phenyl)-5-hydroxy-1H-pyrazole-3-carbonyl]-amino}-3-(4-pyridin-2-yl-phenyl)-propionic acid]
304 nM	100 to 1000 nM	–	O=C(O)C[C@H](NC(=O)c1cc(O)n(-c2cccc(Cl)c2)n1)c1ccccc1Cl [Example 514, (S)-3-(2-Chloro-phenyl)-3-{[1-(3-chloro-phenyl)-5-hydroxy-1H-pyrazole-3-carbonyl]-amino}-propionic acid]
102 nM	100 to 1000 nM	–	Cc1c(F)cccc1C(CC(=O)O)NC(=O)c1cc(O)n(-c2ccccc2F)n1 (stereo not shown) [Example 516, 3-(3-Fluoro-2-methyl-phenyl)-3-{[1-(2-fluoro-phenyl)-5-hydroxy-1H-pyrazole-3-carbonyl]-amino}-propionic acid]
–	1000 to 30000 nM	–	O=C(O)CC(NC(=O)c1cc(O)n(-c2ccccc2F)n1)c1ccc(N2CCOCC2)cc1 (stereo not shown) [Example 518]
–	100 to 1000 nM	–	O=C(O)C[C@H](NC(=O)c1cc(O)n(-c2ccccc2F)n1)c1ccccc1Cl [Example 519]
–	100 to 1000 nM	–	O=C(O)CC(NC(=O)c1cc(O)n(-c2cccc(F)c2)n1)c1ccc(-c2ccccn2)cc1 (stereo not shown) [Example 521]
–	100 to 1000 nM	–	Cc1c(F)cccc1C(CC(=O)O)NC(=O)c1cc(O)n(-c2ccc(F)cc2)n1 (stereo not shown) [Example 523, 3-(3-Fluoro-2-methyl-phenyl)-3-{[1-(4-fluoro-phenyl)-5-hydroxy-1H-pyrazole-3-carbonyl]-amino}-propionic acid]
1510 nM	1000 to 30000 nM	–	COc1ccc(F)cc1C(CC(=O)O)NC(=O)c1cc(O)n(-c2ccc(F)cc2)n1 (stereo not shown) [Example 525, 3-(5-Fluoro-2-methoxy-phenyl)-3-{[1-(4-fluoro-phenyl)-5-hydroxy-1H-pyrazole-3-carbonyl]-amino}-propionic acid]
–	< 100 nM	–	Cc1ccccc1[C@H](CC(=O)O)NC(=O)c1cc(O)n(-c2ccccc2C)n1 [Example 532]
–	100 to 1000 nM	–	O=C(O)CC(NC(=O)c1cc(O)n(-c2ccccc2F)n1)c1ccccc1 (stereo not shown) [Example 535]
–	< 100 nM	–	Cc1ccccc1-n1nc(C(=O)NC(CC(=O)O)c2ccc(-c3ccc(F)cc3)cc2)cc1O (stereo not shown) [Example 536]
–	100 to 1000 nM	–	Cc1ccccc1[C@H](CC(=O)O)NC(=O)c1cc(O)n(-c2ccccc2C(F)(F)F)n1 [Example 537]
–	–	100 to 1000 nM	O=C(O)CC(NC(=O)c1cc(O)n(-c2ccccc2)n1)c1ccc(-c2ccccc2Cl)cc1 (stereo not shown) [Example 539]
–	–	100 to 1000 nM	O=C(O)CC(NC(=O)c1cc(O)n(-c2ccccc2Cl)n1)c1ccc(-c2cccc(Cl)c2)cc1 (stereo not shown) [Example 540]
–	–	100 to 1000 nM	O=C(O)CC(NC(=O)c1cc(O)n(-c2ccccc2F)n1)c1ccc(-c2cccc(Cl)c2)cc1 (stereo not shown) [Example 541]
–	–	< 100 nM	O=C(O)CC(NC(=O)c1cc(O)n(-c2ccccc2F)n1)c1ccc(-c2ccccc2Cl)cc1 (stereo not shown) [Example 542]
–	–	100 to 1000 nM	COc1cc(C(=O)NC(CC(=O)O)c2ccc(-c3ccc(F)cc3)cc2)nn1-c1ccccc1F (stereo not shown) [Example 543]
7760 nM	–	1000 to 30000 nM	COc1ccc(C(F)(F)F)cc1C(CC(=O)O)NC(=O)c1cc(O)n(-c2ccccc2)n1 (stereo not shown) [Example 548, 3-[(5-Hydroxy-1-phenyl-1H-pyrazole-3-carbonyl)-amino]-3-(2-methoxy-5-trifluoromethyl-phenyl)-propionic acid]
13800 nM	–	1000 to 30000 nM	COc1ccc(-c2ccccc2)cc1C(CC(=O)O)NC(=O)c1cc(O)n(-c2ccccc2)n1 (stereo not shown) [Example 549, 3-[(5-Hydroxy-1-phenyl-1H-pyrazole-3-carbonyl)-amino]-3-(4-methoxy-biphenyl-3-yl)-propionic acid]
